Assay results taken from patent publication US20050113286A1, “Methods for treating congestive heart failure” (priority 2002, published 2005).

Tested on: patients with chronic decompensated HF
Experiment: FUSION I: clinical outcomes (death, hospitalization, days alive and out of hospital) through 12 weeks
Type: in vivo, human
Description: In this multicenter, open-label, pilot study, patients were randomly assigned to 1 of 3 treatment groups in a 1:1:1 ratio: (1) usual care, as determined by the investigating physician; (2) usual care plus nesiritide 0.005 μg/kg/min given for 4 to 6 hours, preceded by a 1.0-μg/kg bolus; or (3) usual care plus nesiritide 0.01 μg/kg/min given for 4 to 6 hours, preceded by a 2.0-μg/kg bolus (FIG. 1). The study treatment period was 12 weeks with an additional 4 weeks of follow-up. Nesiritide (Natrecor®) was supplied by Scios Inc., Fremont, Calif. Informed consent was obtained from each patient prior to enrollment, and the Ethics Committee of each institution prospectively approved the study.
The primary goal of this open-label study was to assess the safety and tolerability of different nesiritide doses administered as serial outpatient infusions. Safety and tolerability were measured through investigator reporting of adverse events (AEs), serious AEs, discontinuations of study infusions, laboratory assessments, and vital signs. An AE was defined as any new onset or worsening of any medical condition since study entry. A serious AE were those AEs, which lead to death, hospitalization, or prolonged hospitalization. The effect of nesiritide infusions on renal function was also monitored as a safety variable, with renal AEs defined as increased blood urea nitrogen (BUN) or serum creatinine levels (determined by investigator's discretion), onset of oliguria, or occurrence of acute renal failure. Clinical events were followed to further evaluate safety and tolerability.
To characterize treatment groups with respect to known prognostic factors for hospitalization or death, patients were prospectively stratified using a Risk Assessment Score (RAS). Two levels of risk were defined: patients with an RAS≧4 (i.e., with 4 or more of the 7 risk factors) and patients with an RAS<4. Risk factors utilized were: (1) serum creatinine of >2.0 mg/dl in the preceding 30 days; (2) NYHA class IV for the preceding 60 days; (3)≧65 years old; (4) history of sustained ventricular tachycardia; (5) ischemic etiology of HF; (6) diabetes; and (7) outpatient use of nesiritide or inotropic agents in preceding 6 months.
The effect of treatment was assessed with a 2-way ANOVA, an F test, a stratified Wilcoxon test, a Wilcoxon test, or the generalized Fisher's exact test, depending on the distribution of the variable. Kaplan-Meier estimates of the survival curves for morbidity/mortality time-to-event data were calculated. A log-rank or stratified log-rank test was used for comparisons between 2 treatment groups.

[1] = RAS ≧4 patients, 0.005 μg/kg/min, n = 24, through 12 weeks
[2] = RAS ≧4 patients, 0.01 μg/kg/min, n = 20, through 12 weeks
[3] = RAS ≧4 patients, both nesiritide groups, n = 44, through 12 weeks
[4] = all patients, 0.005 μg/kg/min, n = 72, through 12 weeks
[5] = all patients, 0.01 μg/kg/min, n = 69, through 12 weeks
[6] = all patients, both nesiritide groups, n = 141, through 12 weeks
[7] = baseline NYHA class IV, 0.005 μg/kg/min, n = 25
[8] = baseline NYHA class IV, 0.01 μg/kg/min, n = 22
[9] = baseline NYHA class IV, both nesiritide groups, n = 47
[10] = baseline NYHA class IV, both nesiritide groups, n = 47, p = 0.148 compared with usual care
[11] = lowest serum creatinine >2.0 mg/dL during 30 days prior to the study, 0.005 μg/kg/min, n = 13
[12] = lowest serum creatinine >2.0 mg/dL during 30 days prior to the study, 0.01 μg/kg/min, n = 14
[13] = lowest serum creatinine >2.0 mg/dL during 30 days prior to the study, both nesiritide groups, n = 27
[14] = lowest serum creatinine >2.0 mg/dL during 30 days prior to the study, both nesiritide groups, n = 27, p = 0.176 compared with usual care

Substance: Nesiritide: a recombinant form of human B-type natriuretic peptide (BNP)
- Hospitalizations compared with usual care (NYHA class IV status): trend towards a reduction
- All-cause death and hospitalization, % of patients [1]: 42%
- All-cause death and hospitalization, number of patients [1]: 10
- All-cause hospitalization, % of patients [1]: 42%
- All-cause hospitalization, number of patients [1]: 10
- Days alive and out of hospital, 25th percentile [1]: 74.6 days
- Days alive and out of hospital, Mean ± SD [1]: 76.3 ± 16.8 days
- Deaths, % of patients [1]: 4%
- Deaths, number of patients [1]: 1
- All-cause death and hospitalization, % of patients [2]: 65%
- All-cause death and hospitalization, number of patients [2]: 13
- All-cause hospitalization, % of patients [2]: 60%
- All-cause hospitalization, number of patients [2]: 12
- Days alive and out of hospital, 25th percentile [2]: 75.3 days
- Days alive and out of hospital, Mean ± SD [2]: 77.2 ± 14.0 days
- Deaths, % of patients [2]: 5%
- Deaths, number of patients [2]: 1
- All-cause death and hospitalization, % of patients [3]: 52%
- All-cause death and hospitalization, number of patients [3]: 23
- All-cause hospitalization, % of patients [3]: 50%
- All-cause hospitalization, number of patients [3]: 22
- Days alive and out of hospital, 25th percentile [3]: 75.0 days
- Days alive and out of hospital, Mean ± SD [3]: 76.7 ± 15.5 days
- Deaths, % of patients [3]: 5%
- Deaths, number of patients [3]: 2
- Days alive and out of the hospital compared to the usual care group (RAS≧4 cohort, p=0.027): statistically significant increase
- Deaths or hospitalizations compared with usual care only (RAS≧4 patients): statistically significantly fewer
- All-cause death and hospitalization, % of patients [4]: 46%
- All-cause death and hospitalization, number of patients [4]: 33
- All-cause hospitalization, % of patients [4]: 44%
- All-cause hospitalization, number of patients [4]: 32
- Days alive and out of hospital, 25th percentile [4]: 74.2 days
- Days alive and out of hospital, Mean ± SD [4]: 76.1 ± 15.3 days
- Deaths, % of patients [4]: 8%
- Deaths, number of patients [4]: 6
- All-cause death and hospitalization, % of patients [5]: 49%
- All-cause death and hospitalization, number of patients [5]: 34
- All-cause hospitalization, % of patients [5]: 48%
- All-cause hospitalization, number of patients [5]: 33
- Days alive and out of hospital, 25th percentile [5]: 79.0 days
- Days alive and out of hospital, Mean ± SD [5]: 78.9 ± 10.9 days
- Deaths, % of patients [5]: 4%
- Deaths, number of patients [5]: 3
- All-cause death and hospitalization, % of patients [6]: 48%
- All-cause death and hospitalization, number of patients [6]: 67
- All-cause hospitalization, % of patients [6]: 46%
- All-cause hospitalization, number of patients [6]: 65
- Days alive and out of hospital, 25th percentile [6]: 77.6 days
- Days alive and out of hospital, Mean ± SD [6]: 77.5 ± 13.3 days
- Deaths, % of patients [6]: 6%
- Deaths, number of patients [6]: 9
- Deaths or hospitalizations compared with usual-care group (all patients, each nesiritide dose group and all nesiritide group): no statistically significant differences
- Days alive and out of the hospital compared with usual-care patients (all patients, p=0.131): trends for increasing days alive and out of the hospital
- Days alive and out of hospital, Mean ± SD [7]: 73.3 ± 18.4 days
- Days alive and out of hospital, Median [7]: 84 days
- Patient deaths, % [7]: 8%
- Patient deaths, number [7]: 2
- Patients hospitalized, % [7]: 48%
- Patients hospitalized, number [7]: 12
- Days alive and out of hospital, Mean ± SD [8]: 77.7 ± 13.5 days
- Days alive and out of hospital, Median [8]: 82 days
- Patient deaths, % [8]: 5%
- Patient deaths, number [8]: 1
- Patients hospitalized, % [8]: 55%
- Patients hospitalized, number [8]: 12
- Days alive and out of hospital, Median [9]: 83 days
- Patient deaths, % [9]: 6%
- Patient deaths, number [9]: 3
- Patients hospitalized, % [10]: 51%
- Patients hospitalized, number [10]: 24
- Days alive and out of hospital, Mean ± SD (baseline NYHA class IV, both nesiritide groups, n = 47, p = 0.182 compared with usual care): 75.4 ± 16.2 days
- Days alive and out of hospital compared to usual care alone (elevated serum creatinine, >2.0 mg/dL): statistically significant increase
- Days alive and out of hospital, Mean ± SD [11]: 75.7 ± 19.0 days
- Days alive and out of hospital, Median [11]: 84 days
- Patient deaths, % [11]: 8%
- Patient deaths, number [11]: 1
- Patients hospitalized, % [11]: 46%
- Patients hospitalized, number [11]: 6
- Days alive and out of hospital, Mean ± SD [12]: 78.4 ± 9.0 days
- Days alive and out of hospital, Median [12]: 81 days
- Patient deaths, % [12]: 7%
- Patient deaths, number [12]: 1
- Patients hospitalized, % [12]: 57%
- Patients hospitalized, number [12]: 8
- Days alive and out of hospital, Median [13]: 81 days
- Patient deaths, % [13]: 7%
- Patient deaths, number [13]: 2
- Days alive and out of hospital, Mean ± SD (lowest serum creatinine >2.0 mg/dL during 30 days prior to the study, both nesiritide groups, n = 27, p = 0.019 compared with usual care): 77.1 ± 14.7 days
- Patients hospitalized, % [14]: 52%
- Patients hospitalized, number [14]: 14
